The assay addresses Hypoxia-inducible factor 1-alpha (Homo sapiens, UniProt Q16665). The assay is described as follows: Inhibition of HIF-1alpha in human Hep3B cells cotransfected with pGL3-HRE-luciferase plasmid after 24 hrs by dual-luciferase reporter assay.

Hypoxia-inducible factor 1-alpha, sequence (Q16665 whole entry): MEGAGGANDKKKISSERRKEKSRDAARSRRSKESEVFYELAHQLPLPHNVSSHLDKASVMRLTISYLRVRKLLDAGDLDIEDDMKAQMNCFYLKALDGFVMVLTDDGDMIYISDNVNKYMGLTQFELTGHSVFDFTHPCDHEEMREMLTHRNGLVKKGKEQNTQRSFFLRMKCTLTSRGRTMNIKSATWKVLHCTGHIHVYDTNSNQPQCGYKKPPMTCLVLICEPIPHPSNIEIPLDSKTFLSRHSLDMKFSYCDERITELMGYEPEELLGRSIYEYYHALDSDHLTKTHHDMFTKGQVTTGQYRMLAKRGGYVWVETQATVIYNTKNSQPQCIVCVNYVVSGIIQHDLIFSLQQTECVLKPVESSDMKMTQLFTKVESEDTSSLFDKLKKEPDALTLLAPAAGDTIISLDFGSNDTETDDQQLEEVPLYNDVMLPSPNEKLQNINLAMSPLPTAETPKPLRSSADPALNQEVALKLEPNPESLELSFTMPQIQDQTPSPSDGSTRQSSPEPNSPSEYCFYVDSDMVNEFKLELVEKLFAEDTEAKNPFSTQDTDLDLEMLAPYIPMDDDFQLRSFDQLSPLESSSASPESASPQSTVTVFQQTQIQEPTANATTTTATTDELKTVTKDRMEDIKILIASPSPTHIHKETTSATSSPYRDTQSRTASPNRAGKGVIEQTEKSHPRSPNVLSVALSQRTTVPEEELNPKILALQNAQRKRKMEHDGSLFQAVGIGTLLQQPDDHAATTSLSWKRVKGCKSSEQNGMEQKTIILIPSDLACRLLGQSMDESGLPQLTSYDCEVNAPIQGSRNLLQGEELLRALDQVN

As to `CC1(C)Oc2cc3oc(-c4cc(O)cc(O)c4)cc3cc2CC1O` (stereo unspecified) [Moracin P], the IC50 was 0.65 nM.
